Series [1] is described as follows: Lipophilicity (logkw) by reversed-phase chromatography (RP-HPLC). It counts as physicochemical. To be noted: for logkw (Experimental): extrapolated to pure water; for logkw (Table S2): intercept of logk vs methanol fraction, n = 4. The source says: The main goal of the synthetic part was the synthesis of new derivatives of dicarboximides with decreased lipophilicity in comparison to the lead compounds, i.e., Ia–Ie and II. To reduce the lipophilicity of the new dicarboximides, a hydroxyalkyl chain connected with an aliphatic amine was introduced to the imides (Scheme 1). At the same time, the imide scaffold in derivatives from group 2 and 3 was the same as in lead compounds Ia–Ie and II, respectively (Figure 1). The structure of the imide was changed in derivatives 1b–1g. The lipophilicity of new derivatives was calculated using the Osiris Property Explorer program. For some compounds, lipophilicity was determined experimentally by a reversed-phase chromatography (detailed description is given in Materials and Methods and in the Supplementary Data, Table S2). Table 1 summarizes the calculated (clogP) and experimental (logkw) parameters of the lipophilicity of new derivatives.
The reversed-phase high-performance liquid chromatography (RP-HPLC) analysis was performed on a Merck–Hitachi LaChrom Elite System (Merck, Darmstadt, Germany) with diode array detector L-2455, thermostat L-2300, pump L-2130, and autosampler L-2200 and with the Waters XTerra MS RP-18 (3.5 μm, 150 × 4.6 mm) chromatographic column (Waters, Milford, MA, USA) as the stationary phase. The mobile phase consisted of methanol, water, and 0.1% (v/v) formic acid and was degassed by the use of the built-in membrane degasser. The methanol gradient grade for HPLC was purchased from Merck (Merck, Darmstadt, Germany) and formic acid from Polish Reagents (Polish Reagents, Gliwice, Poland); double-distilled water was used. Then, 5 μL of methanolic solutions (0.1%; m/v) of selected samples were applied to the chromatographic column by the use of an autosampler Hitachi L-2200 (LaChrom Elite, Hitachi-Merck, Darmstadt, Germany). The analysis was performed with the flow rate of 0.7 mL min^−1 in isocratic mode using various concentrations of organic modifier (methanol) in binary polar mobile phases; percentages of methanol in water were 45–70% (%, v/v) and changed by 5% per step. Chromatograms were detected at 254 nm and the temperature of the column was 25 °C. All experiments were repeated in triplicate, and the final results were taken to be the arithmetic means. Dead time was measured by the use of uracil (Calbiochem. Merck, Darmstadt, Germany). Statistical and regression analyses were performed using Statistica (ver. 13.3 for Windows). The chromatographic lipophilicity parameters ( logkW ) for selected samples were obtained by the extrapolation of the retention parameter logk to pure water, according to Equation (1):(1) logk=logkw−S·ϕ; where logkW is the value of the retention factor of a substance in pure water, S is the slope of the regression curve, and ϕ is the concentration of the organic modifier. The values of logk were calculated based on the raw HPLC data using the formula (2):(2) logk=logtR−t0/t0; where tR is the retention time and t0 is the dead retention time (determined for uracil).
The chromatographic lipophilicity parameters (logkௐ ) for selected samples were ob‐ tained by the extrapolation of the retention parame te r logk to pure water, according to […]
where logkௐ is the value of the retention factor of a substance in pure water, S is the slope of the regression curve, and φ is the concentration of the organic modifier. The values of logk were ca lcula ted based on the raw HPLC data using the formula: […]
logk ൌ log ሺ௧ೃ ି ௧బ௧బ ሻ (2) where tோ is the retention time and t଴ is the dead retention time (determined for ura‐ cil). The goodness of fit of the equation (1) to the experimental data was classified accord‐ ing to Jaffe (Jaffe, H. H. A Reexamination of the Hammet Equation. Chem. Rev. 1953, 53, In our RP‐HPLC experiments, the goodness of fit of the equation to the experi‐ mental data are excellent in most ca ses (r > 0.99). The F statistic val ues are, in all cases, […]

Series [2] has as its system HeLa (human cervix carcinoma) cells. As to the kind of experiment: MTT cytotoxicity assay, HeLa. Format: cell-based. To be noted: read-out: IC50 HeLa. As for the experimental part:
(§1) The cytotoxicity of new derivatives of dicarboximides was tested in HeLa (cervix carcinoma cell line), K562 (myelogenous leukemia cell line), MOLT-4 (Human T-Lymphoid Cell Line), and HUVEC (normal endothelial) cells. First, the viability of cells was determined after 48 h incubation with the screened compounds used at the concentration of 100 μM (data not shown). […] Cells exposed to 1% DMSO (as vehicle) served as the control with 100% survival.
(§2) Human umbilical vein endothelial cells (Life Technologies, Carlsbad, CA, USA) were cultured (according to the manufacturer’s instructions) in Medium 200 containing low serum growth supplement; 1 × 10^4 cells were seeded on each well on a 96-well plate (Nunc, Roskilde, Denmark). The HeLa (human cervix carcinoma), K562, and MOLT-4 (leukemia) cells were cultured in RPMI 1640 medium supplemented with antibiotics and 10% fetal calf serum in a 5% CO2–95% air atmosphere; 7 × 10^3 cells were seeded on each well on a 96-well plate (Nunc). Twenty-four hours later, cells were exposed to the test compounds for additional 48 hours. Stock solutions of test compounds were freshly prepared in DMSO. The final concentrations of the compounds tested in the cell cultures were 2 × 10^−1, 1 × 10^−1, 5 × 10^−2, 1 × 10^−2, 1 × 10^−3, and 1 × 10^−4 mM. The concentration of DMSO in the cell culture medium was 1%. The values of IC50 (the concentration of test compound required to reduce the cell survival fraction to 50% of the control) were calculated from dose–response curves and used as a measure of cellular sensitivity to a given treatment. The cytotoxicity of all compounds was determined by the MTT [3-(4,5-dimethylthiazol-2-yl)-2,5-diphenyltetrazolium bromide; Sigma, St. Louis, MO, USA] assay. Briefly, after 24 or 48 h of incubation with drugs, the cells were treated with the MTT reagent, and incubation was continued for 2 h. MTT-formazan crystals were dissolved in 20% SDS and 50% DMF at pH 4.7, and absorbance was read at 570 and 650 nm on a microplate reader FLUOstar Omega (BMG Labtech, Offenburg, Germany). As a control (100% viability), we used cells grown in the presence of the vehicle (1% DMSO) only.
In general terms: Formazan colour is commonly taken as a measure of viable cells.

The subject of series [3] is K562 (myelogenous leukemia cell line). As to the kind of experiment: MTT cytotoxicity assay, K562. It counts as cell-based, human. To be noted: Homo sapiens, K562, 48 h, read-out: IC50 K562. As for the experimental part: as §1, §2
In series [4] the test system is MOLT-4 (Human T-Lymphoid Cell Line). As to the kind of experiment: MTT cytotoxicity assay, MOLT-4. It counts as cell-based. The conditions noted are these: read-out: IC50 MOLT-4. As for the experimental part:
as §1, §2

The subject of series [5] is HUVEC (normal endothelial) cells. As to the kind of experiment: MTT cytotoxicity assay, HUVEC. Format: cell-based. To be noted: Homo sapiens, read-out: IC50 HUVEC. As for the experimental part: as §1, §2
[6] abbreviates: 48 h incubation, average (SD) of three experiments.
The mark [7] stands for this setting: MOLT-4, 48 h incubation, average (SD) of three experiments.

The text below walks through data of article PMC8122671, “New Succinimides with Potent Anticancer Activity: Synthesis, Activation of Stress Signaling Pathways and Characterization of Apoptosis in Leukemia and Cervical Cancer Cells” (International Journal of Molecular Sciences, 2021).

Like-named read-outs stand apart in the source and are kept apart here. Bounds are passed on as bounds.

The IC50 is the concentration that inhibits the measured activity by half.

As to `CCNCC(O)CN1C(=O)C2C(C1=O)C1(C)C(=O)C2(C)C(c2ccccc2)=C1c1ccccc1` (stereo not drawn) [1b, 4-[3-(ethylamino)-2-hydroxypropyl]-1,7-dimethyl-8,9-diphenyl-4-azatricyclo [5.2.1.0^2,6]dec-8-ene-3,5,10-trione], in series [1], the “logkw (Experimental)” value is on record as 4.78. Moreover, the “logkw (Table S2)” value in series [1] came to 4.7844. Besides, the IC50 is 30 µM in series [2] (setting [6]), 32 µM in series [3] (setting [6]), 7 µM in series [4] (setting [7]) and 20 µM in series [5] (setting [6]).
`CCCCN(CCCC)CC(O)CN1C(=O)C2C(C1=O)C1(C)C(=O)C2(C)C(c2ccccc2)=C1c1ccccc1` (stereo not drawn) [1e, 4-[3-(dibutylamino)-2-hydroxypropyl]-1,7-dimethyl-8,9-diphenyl-4-azatricyclo [5.2.1.0^2,6]dec-8-ene-3,5,10-trione]: the IC50 in series [2] (setting [6]) amounted to 3.2 µM; in series [3] (setting [6]), 5.8 µM; in series [4] (setting [7]), 8 µM; in series [5] (setting [6]), 30 µM.
The corresponding values for `CC12C(=O)C(C)(C(c3ccccc3)=C1c1ccccc1)C1C(=O)N(CC(O)CN3CCCCC3)C(=O)C12` (stereo not drawn) [1f, 4-[2-hydroxy-3-(piperidin-1-yl)propyl]-1,7-dimethyl-8,9-diphenyl-4-azatricyclo[5.2.1.0^2,6]dec-8-ene-3,5,10-trione] are 55 µM, 18 µM, 40 µM and 21 µM.
In the case of `CC12C(=O)C(C)(C(c3ccccc3)=C1c1ccccc1)C1C(=O)N(CC(O)CN3CCOCC3)C(=O)C12` (stereo not drawn) [1g, 4-[-2-hydroxy-3-(morpholin-4-yl)propyl]-1,7-dimethyl-8,9-diphenyl-4-azatricyclo [5.2.1.0^2,6]dec-8-ene-3,5,10-trione], in series [1], the “logkw (Experimental)” value was 4.83. The “logkw (Table S2)” value in series [1] came out at 4.8345. The IC50 in series [2] (setting [6]), in series [3] (setting [6]) and in series [4] (setting [7]) was > 100 µM in each case.
As for `CC12C(=O)C(C)(C(c3ccccc3)=C1c1ccccc1)C1C(=O)N(CCN3CCCCC3)C(=O)C12` (stereo not drawn) [1i, 4-[2-(piperidin-1-yl)ethy]-1,7-dimethyl-8,9-diphenyl-4-azatricyclo[5.2.1.0^2,6]dec-8-ene-3,5,10-trione], the IC50 was determined as 52 µM in series [2] (setting [6]), 30 µM in series [3] (setting [6]), 15 µM in series [4] (setting [7]) and 23 µM in series [5] (setting [6]).
Consider `CC12C(=O)C(C)(C(c3ccccc3)=C1c1ccccc1)C1C(=O)N(CCN3CCOCC3)C(=O)C12` (stereo not drawn) [1j, 4-[2-(morpholin-4-yl)ethy]-1,7-dimethyl-8,9-diphenyl-4-azatricyclo[5.2.1.0^2,6]dec-8-ene-3,5,10-trione], for which the half-maximal inhibitory concentration (IC50) in series [2] (setting [6]), in series [3] (setting [6]) and in series [4] (setting [7]) was > 100 µM each time.
For `CCCCN(CCCC)CC(O)CN1C(=O)C2C(C1=O)C1(CC)C(=O)C2(CC)C(c2ccccc2)=C1c1ccccc1` (stereo not drawn) [2e, 4-[3-(dibutylamino)-2-hydroxypropyl]-1,7-diethyl-8,9-diphenyl-4-azatricyclo[5.2.1.0^2,6]dec-8-ene-3,5,10-trione], the IC50 in series [2] (setting [6]) is 19 µM; in series [3] (setting [6]), 4.1 µM; in series [4] (setting [7]), 3.1 µM; in series [5] (setting [6]), 1.2 µM.
As to `CCNCC(O)CN1C(=O)C2C(C1=O)C1(c3ccccc3)CC2(c2ccccc2)C(c2ccccc2)=C1c1ccccc1` (stereo not drawn) [3b, 4-[3-(ethylamino)-2-hydroxypropyl]-1,7,8,9-tetraphenyl-4-azatricyclo[5.2.1.0^2,6]dec-8-ene-3,5-dione], the “logkw (Experimental)” value in series [1] was 6.31. Further, the “logkw (Table S2)” value in series [1] worked out at 6.3071. For the same compound, the half-maximal inhibitory concentration (IC50) in series [2] (setting [6]), in series [3] (setting [6]) and in series [4] (setting [7]) was > 100 µM in each case.
Consider `CCCCN(CCCC)CC(O)CN1C(=O)C2C(C1=O)C1(c3ccccc3)CC2(c2ccccc2)C(c2ccccc2)=C1c1ccccc1` (stereo not drawn) [3e, 4-[3-(dibutylamino)-2-hydroxypropyl]-1,7,8,9-tetraphenyl-4-azatricyclo[5.2.1.0^2,6]dec-8-ene-3,5-dione], for which the IC50 in series [2] (setting [6]) worked out at 40 µM; in series [3] (setting [6]) it was 6 µM; in series [4] (setting [7]) it was 5.4 µM; in series [5] (setting [6]) it was 7 µM.
The corresponding values for `CN(C)CCN1C(=O)C2C(C1=O)C1(c3ccccc3)CC2(c2ccccc2)C(c2ccccc2)=C1c1ccccc1` (stereo not drawn) [II] are 20 µM, 16 µM, 18 µM and 4 µM.
As to `CCC12C(=O)C(CC)(C(c3ccccc3)=C1c1ccccc1)C1C(=O)N(CCN(C)C)C(=O)C12` (stereo not drawn) [Ia], in series [1], the “logkw (Experimental)” value was 4.94 and the “logkw (Table S2)” value was found to be 4.9430.
On to `CCN(CC)CCN1C(=O)C2C(C1=O)C1(CC)C(=O)C2(CC)C(c2ccccc2)=C1c1ccccc1` (stereo not drawn) [Ib], for which, in series [1], the “logkw (Experimental)” value was 5.09 and the “logkw (Table S2)” value is on record as 5.0889.
Turning to `CCC12C(=O)C(CC)(C(c3ccccc3)=C1c1ccccc1)C1C(=O)N(CCN3CCCCC3)C(=O)C12` (stereo not drawn) [Ic], the IC50 in series [2] (setting [6]) turned out to be 18 µM; in series [3] (setting [6]), 20 µM; in series [4] (setting [7]), 15 µM; in series [5] (setting [6]), 15 µM.
As for `CCC12C(=O)C(CC)(C(c3ccccc3)=C1c1ccccc1)C1C(=O)N(CCCN(C)C)C(=O)C12` (stereo not drawn) [Id], in series [1], the “logkw (Experimental)” value is given as 5.05 and the “logkw (Table S2)” value was found to be 5.0532.
Consider `CCC12C(=O)C(CC)(C(c3ccccc3)=C1c1ccccc1)C1C(=O)N(CC(O)CNC(C)C)C(=O)C12` (stereo not drawn) [Ie], for which the IC50 in series [2] (48 h) came out at 10 µM; in series [3] it was 8 µM; in series [4] (MOLT-4, 48 h) it was 15 µM; in series [5] (48 h) it was 3.5 µM.
